The molecules below were run against T1, Mouse autotaxin enzyme (Mus musculus, UniProt Q9R1E6) (assay: Evaluation of autotaxin inhibitor, Method A (Test Example 1): TG-mTMP fluorescence). Details: Assay Method: Method A (Test Example 1); read-out: Inhibitory Activity (Enzyme Inhibitory Activity, IC50).
T1 construct: purchased R&D System
Type: biochemical
Method: (Method A) Evaluation of Autotaxin Inhibitor
Solution A containing 25 mM Tris-HCl buffer (pH7.5), 100 mM NaCl, 5 mM MgCl2 and 0.1% BSA was prepared. Mouse autotaxin enzyme (purchased from R&D System) was diluted with Solution A, and 5 μL of which was added to a solution of test compound in DMSO. Furthermore, 5 μl of 0.5 μM TG-mTMP in Solution A was added and allowed to react at room temperature for 2 hours. 5 μl of 150 mM EDTA in Solution A was added to quench the reaction, and a fluorescent dye TokyoGreen, which was produced by the reaction, was detected. The fluorescence was detected using ViewLux (PerkinElmer, Inc.) with an excitation wavelength of 480 nm and a fluorescence wavelength of 540 nm.
The percent inhibition of the test compound was calculated by assuming the sample with no test compound as 0% inhibition and the sample with no enzyme as 100% inhibition, and the percent inhibitions at different concentrations of the test compound were plotted to obtain a concentration-dependent curve.

IC50	SMILES
10 to 100 nM	COC(=O)Cn1c(C)cc(=O)n2cc(-c3ccc(Cl)cc3)nc12 [Compound 21]
10 to 100 nM	CCCn1c(C)cc(=O)n2cc(-c3ccc(Cl)cc3)nc12 [Compound 6]
10 to 100 nM	CCOC(=O)Cn1c(C)cc(=O)n2cc(-c3ccc(F)cc3)nc12 [Compound 30]
10 to 100 nM	CCCCCn1c(C)cc(=O)n2cc(-c3ccc(F)cc3)nc12 [Compound 17]
100 to 1000 nM	CCCCCCCCCn1c(C)cc(=O)n2cc(-c3ccc(Cl)cc3)nc12 [Compound 11]
10 to 100 nM	CCCCCCCn1c(C)cc(=O)n2cc(-c3ccc(Cl)cc3)nc12 [Compound 9]
10 to 100 nM	C=CCn1c(C)cc(=O)n2cc(-c3ccc(Cl)cc3)nc12 [Compound 15]
100 to 1000 nM	CCOC(=O)Cn1c(C)cc(=O)n2cc(-c3cccc([N+](=O)[O-])c3)nc12 [Compound 37]
10 to 100 nM	CCOC(=O)Cn1c(C)cc(=O)n2cc(-c3ccc(I)cc3)nc12 [Compound 40]
10 to 100 nM	C#CCn1c(C)cc(=O)n2cc(-c3ccc(Cl)cc3)nc12 [Compound 16]
10 to 100 nM	Cc1cc(=O)n2cc(-c3ccc(Cl)cc3)nc2n1C1CCCCC1 [Compound 14]
> 1000 nM	CCOC(=O)Cn1c(C)cc(=O)n2cc(-c3cccc(N)c3)nc12 [Compound 39]
10 to 100 nM	CCOC(=O)Cn1c(C)cc(=O)n2cc(-c3ccc(Br)cc3)nc12 [Compound 31]
100 to 1000 nM	CCCCCCCCCCn1c(C)cc(=O)n2cc(-c3ccc(Cl)cc3)nc12 [Compound 12]
10 to 100 nM	CCOC(=O)Cn1c(C)cc(=O)n2cc(-c3ccccc3)nc12 [Compound 35]
100 to 1000 nM	Cc1cc(=O)n2cc(-c3ccc(Cl)cc3)nc2n1C [Compound 4]
> 1000 nM	CCOC(=O)Cn1c(C)cc(=O)n2cc(-c3cccc(Br)c3)nc12 [Compound 33]
10 to 100 nM	CCCCCn1c(C)cc(=O)n2cc(-c3ccc(C)cc3)nc12 [Compound 19]
10 to 100 nM	Cc1cc(=O)n2cc(-c3ccc(Cl)cc3)nc2n1CC(=O)OC(C)(C)C [Compound 23]
10 to 100 nM	CCOC(=O)Cn1c(C)cc(=O)n2cc(-c3ccc(Cl)c(Cl)c3)nc12 [Compound 34]
10 to 100 nM	CCn1c(C)cc(=O)n2cc(-c3ccc(Cl)cc3)nc12 [Compound 5]
100 to 1000 nM	CCNC(=O)Cn1c(C)cc(=O)n2cc(-c3ccc(Cl)cc3)nc12 [Compound 24]
10 to 100 nM	CCCCCCCCn1c(C)cc(=O)n2cc(-c3ccc(Cl)cc3)nc12 [Compound 10]
> 1000 nM	CCOC(=O)Cn1c(C)cc(=O)n2cc(-c3ccc(N)cc3)nc12 [Compound 38]
10 to 100 nM	CCOC(=O)Cn1c(C)cc(=O)n2cc(-c3ccc([N+](=O)[O-])cc3)nc12 [Compound 36]
10 to 100 nM	CCOC(=O)Cn1c(C)cc(=O)n2cc(-c3ccc(OC)cc3)nc12 [Compound 32]
> 1000 nM	COCCOCCOCCn1c(C)cc(=O)n2cc(-c3ccc(Cl)cc3)nc12 [Compound 27]
10 to 100 nM	Cc1cc(=O)n2cc(-c3ccc(Cl)cc3)nc2n1CC(=O)OCc1ccccc1 [Compound 22]
100 to 1000 nM	CCN(C)C(=O)Cn1c(C)cc(=O)n2cc(-c3ccc(Cl)cc3)nc12 [Compound 25]

The molecules below were run against T2, Human autotaxin enzyme (Homo sapiens, UniProt Q13822) (assay: Evaluation of autotaxin inhibitor, Method B (Test Example 2): TG-mTMP fluorescence). Details: Assay Method B (Test Example 2), human autotaxin; read-out: Inhibitory Activity (autotaxin enzyme inhibitory activity, IC50 class).
T2 construct: purchased R&D System
Type: biochemical
Procedure, shortened: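 Human autotaxin in Tris-HCl pH 7.5 buffer with NaCl, MgCl2 and 0.1% BSA was reacted with TG-mTMP (0.5 μM solution added) and test compound for 2 hours at room temperature.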

IC50	SMILES
< 10 nM	CCCCCn1c(N(C)C)cc(=O)n2cc(-c3ccc(Cl)cc3)nc12 [Compound 231]
10 to 100 nM	Cc1cc(=O)n2cc(-c3ccc(Cl)cc3)nc2n1CCCCF [Compound 94]
10 to 100 nM	CCCCCn1c(N2CCCC2CCCc2ccccc2)cc(=O)n2cc(-c3ccc(Cl)cc3)nc12 (stereo not drawn) [Compound 278]
> 1000 nM	CCCCCn1c(C)c(CCOCC)c(=O)n2cc(-c3ccc(Cl)cc3)nc12 [Compound 216]
< 10 nM	CCCCCn1c(CCC)cc(=O)n2cc(-c3ccc(Cl)cc3)nc12 [Compound 369]
< 10 nM	CCCCCn1c(NCCN2CCOCC2)cc(=O)n2cc(-c3ccc(Cl)cc3)nc12 [Compound 238]
10 to 100 nM	Cc1cc(=O)n2cc(-c3ccc(Cl)cc3)nc2n1Cc1ccc(-c2ncccn2)cc1 [Compound 91]

Same assay, conditions: Assay Method: Method B (Test Example 2); read-out: Inhibitory Activity (Enzyme Inhibitory Activity, IC50)

IC50	SMILES
100 to 1000 nM	CC(=O)CCCn1c(C)cc(=O)n2cc(-c3ccc(Cl)cc3)nc12 [Compound 61]
10 to 100 nM	Cc1cc(=O)n2cc(-c3ccc(Cl)cc3)nc2n1CC(=O)OC(C)(C)C [Compound 73]
10 to 100 nM	Cc1cc(=O)n2cc(-c3ccc(Cl)cc3)nc2n1CCC(F)=C(F)F [Compound 55]
